Measurements as given in US12428386B2, “Sphingosine 1 phosphate receptor modulators” (RECEPTOS LLC, priority 2020, dated 2025).
pEC50: −log10 of the molar value.

Assays:
S1P1 = molecular target: T1, S1P1 (Homo sapiens, UniProt P21453); test: [35S]-GTPγS binding assay, CHO-S1P receptor membranes, S1P1; type: biochemical; conditions: CHO-S1P receptor membrane; for Emax: control S1P, read-out: S1P1 % Efficacy
T1 construct: expressed in transfected cells; host or cells: CHO cell membranes
Method: (§1) Binding assays for [^35S]-GTPγS were performed in 96-well non-binding surface plates with a final volume of 200 μL. The test compounds were serial diluted in DMSO and added to assay plates using a Tecan D300E digital printer with a total volume of 0.4 μL. The control sphingosine-1-phosphate (S1P) was prepared separately by preparing a 400 μM stock solution from a 100 nmol pellet of S1P in 10 mM Na2CO3 with 2% β-cyclodextrin. The serial dilution of S1P was done using complete assay buffer (20 mM HEPES, 10 mM MgCl2, 100 mM NaCl, 1 mM EDTA, 0.1% fatty acid free bovine serum albumin [BSA], and 30 μg/mL saponin, pH7.4) and transferred to wells already containing 0.4 μL DMSO. All the wells were then loaded to a total volume of 40 μL of complete assay buffer, except the non-specific binding (NSB) wells. For NSB wells, 40 μL/well of 50 μM GTPγS (Sigma Aldrich, cat# G8634, St. Louis, MO) was added to wells containing 0.4 μL of DMSO. The assay was started by the addition of 120 μL/well of CHO-S1P receptor membrane solution containing 40 μg/mL of membrane protein, 16.67 μM guanosine diphosphate (GDP; Sigma Aldrich, cat# G7127, St. Louis, MO), and 2.5 mg/mL of WGA PVT SPA beads in complete buffer. Assay plates were then sealed and incubated at room temperature with gentle agitation for 30 minutes. Next, 40 μL/well of 1 nM of [^35S]-GTPγS (PerkinElmer, cat# NEG030×250UC, Waltham, MA) in basic assay buffer (20 mM HEPES, 10 mM MgCl2, 100 mM NaCl, and 1 mM EDTA, pH7.4) was added to the assay plates to yield a final concentration of 200 pM and the plates were further incubated for 40 minutes at room temperature with gentle agitation. The assay was terminated by centrifugation of the plates at 1000 rpm for 3 minutes using an Eppendorf 5810R centrifuge (Eppendorf, Hamburg, Germany) and G protein bound radioactivity was quantitated using a MicroBeta2 microplate scintillation counter (PerkinElmer, Waltham, MA).

S1P5 = molecular target: T2, S1P5 (Homo sapiens, UniProt Q9H228); test: [35S]-GTPγS binding assay, CHO-S1P receptor membranes, S1P5; type: biochemical; conditions: CHO-S1P receptor membrane; for Emax: control S1P, read-out: S1P5 % Efficacy
T2 construct: expressed in transfected cells; host or cells: CHO cell membranes
Method: as §1

T2 sequence (Q9H228 whole entry, species assumed): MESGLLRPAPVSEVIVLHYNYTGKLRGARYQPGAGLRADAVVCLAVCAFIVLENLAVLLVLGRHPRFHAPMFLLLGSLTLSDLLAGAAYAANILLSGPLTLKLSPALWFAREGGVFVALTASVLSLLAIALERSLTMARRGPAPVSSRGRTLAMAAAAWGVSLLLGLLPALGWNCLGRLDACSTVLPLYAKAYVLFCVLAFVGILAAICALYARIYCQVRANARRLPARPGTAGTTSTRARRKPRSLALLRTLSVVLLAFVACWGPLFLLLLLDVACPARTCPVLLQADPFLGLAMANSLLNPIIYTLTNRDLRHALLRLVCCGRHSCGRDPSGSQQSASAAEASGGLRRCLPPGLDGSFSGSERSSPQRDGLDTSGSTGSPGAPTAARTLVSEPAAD
T1 sequence (P21453 whole entry, species assumed): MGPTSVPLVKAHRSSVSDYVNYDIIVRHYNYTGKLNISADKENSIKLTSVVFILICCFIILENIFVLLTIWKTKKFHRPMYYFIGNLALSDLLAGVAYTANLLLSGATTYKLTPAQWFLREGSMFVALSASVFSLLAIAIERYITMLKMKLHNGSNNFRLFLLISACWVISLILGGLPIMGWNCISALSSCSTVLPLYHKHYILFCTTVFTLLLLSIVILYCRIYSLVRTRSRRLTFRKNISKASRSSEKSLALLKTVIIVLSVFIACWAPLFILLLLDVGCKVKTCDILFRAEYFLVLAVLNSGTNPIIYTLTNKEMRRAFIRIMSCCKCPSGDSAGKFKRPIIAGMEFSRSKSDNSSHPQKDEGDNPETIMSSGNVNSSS

SMILES: CCOC1=CCc2c1cccc2-c1noc(-c2ccc(OC(C)C)c(C#N)c2)n1 [compound 3, 5-(3-(3-ethoxy-1H-inden-7-yl)-1,2,4-oxadiazol-5-yl)-2-isopropoxy-benzonitrile]
- pEC50 (S1P1): 7.49
- Emax (S1P1): 92%
- pEC50 (S1P5): 6.57
- Emax (S1P5): 68%

SMILES: CC(C)OC1=CCc2c1cccc2-c1noc(-c2ccc(OC(C)C)c(C#N)c2)n1 [compound 4, 2-isopropoxy-5-(3-(3-isopropoxy-1H-inden-7-yl)-1,2,4-oxadiazol-5-yl)-benzonitrile]
- pEC50 (S1P1): 8.15
- Emax (S1P1): 86%
- pEC50 (S1P5): 6.82
- Emax (S1P5): 79%

SMILES: COC1=CCc2c1cccc2-c1noc(-c2ccc(OC(C)C)c(C#N)c2)n1 [compound 2, 2-isopropoxy-5-(3-(3-methoxy-1H-inden-7-yl)-1,2,4-oxadiazolyl)benzonitrile]
- pEC50 (S1P1): 7.74
- Emax (S1P1): 87%
- pEC50 (S1P5): 6.83
- Emax (S1P5): 33%
